Experimental data reported in patent US20230277550A1, “Methods for Treating Respiratory Diseases Characterized by Mucus Hypersecretion” (The Board of Trustees of the Leland Stanford Junior …, priority 2020, published 2023).
Entries after “also recorded” stand apart in the source; their conditions may differ.

Assays:
[1] = test system: wild-type control and CF (F508Δ/F508Δ) HNEC cultures; assay: Combination of semagacestat and CFTR modulator, MCC differentiation; type: cell-based; conditions: human CF samples with different CFTR mutations
Method: To assess the effects of combining semagacestat and CFTR modulator treatment, wild-type control and CF (F508Δ/F508Δ) HNEC cultures were grown to maturity with or without semagacestat from ALI +0-21d and cultures were treated with or without Lumacaftor (VX-809) from ALI +19-21d and Ivacaftor (VX-770) for ten minutes prior to fixation. PFA fixed membranes were then stained for Acetylated tubulin (green; MCCs) and E-Cadherin (red).
In some cases, such as this one, the semagacestat-induced increase in MCC/total cell ratio is further increased by Lumacaftor. […] CF patients not eligible for Trikafta respond to semagacestat alone similarly to those on corrector therapy (not shown).

airway epithelia = assay: In vivo mouse model, ratio of MCCs to non-ciliated cells in airway epithelia after IP dosing; parameters: species or system mice
Method: Airways from lung sections of similar size were labeled for all nuclei (red; DAPI) and MCC cell fate (green; FoxJ1 and blue; acetylated tubulin). Cells were scored and the percentage of MCCs determined prior to unblinding treatment condition. Otherwise wildtype mice carried FoxJ1::GFP to facilitate scoring of MCCs.
10-40 week age-matched male and female Foxj1-GFP mice were given semagacestat or vehicle by intraperitoneal (IP) administration. In the first experiment, semagacestat was administered at 0.1 mg/kg and 1 mg/kg twice daily for three days and compared to vehicle alone. Mice were sacrificed on day 7. […] In approximately similar sized, PFA-fixed airways, nuclei (red; DAPI) were scored either as MCCs (green; GFP) or non-ciliated cells (absence of GFP). Acetylated tubulin (blue) marks cilia. Samples were blinded for treatment group prior to scoring.
In the second experiment, vehicle and semagacestat were administered once daily for 5 consecutive days per week for three weeks, with a semagacestat dose of 1 mg/kg. An important observed toxicity in multiple GSI clinical trials, including large Alzheimer’s Disease trials, was gastrointestinal toxicity. As a surrogate measure of GI toxicity, we monitored body weight throughout the experiment.
Body weight was measured on Days 1, 9, 24 and 30, and mice were sacrificed on day 31.

[2] = test system: Primary human airway epithelial cells; assay: GSI treatment from the apical or basal surface; type: cell-based; conditions: ALI+0 to +21d, apical or basal application
Method: Primary human airway epithelial cells were treated with DAPT and LY45139 during differentiation only (ALI+0 to +21d) from either the apical or basal surface, then labeled at ALI+21d with anti-acetylated α-Tubulin (green) and ECAD (red) antibodies. […] Apical treatment eliminates the air-liquid interface, which results in the poor epithelial structure and multiciliated cell differentiation in the untreated cultures, which is partially rescued by GSI treatment.

CFTR = CFTR current in Ussing chambers, GSI with or without ETI; type: cell-based, human; conditions: cultures from CF patients, GSI plus ETI
Method: Cells grown at an air liquid interface were mounted on a holding slider and inserted on an Ussing chamber for electrophysiological short circuit current (Isc) measurements. Solutions in the serosal and mucosal bath were prepared so that a chloride gradient was established between both sides. After stable baseline current recordings were obtained, agonists were added in the following order: amiloride (10 µM) to block sodium channel activity, forskolin (10 µM) to stimulate CFTR, Ivacaftor (10 µM) to potentiate CFTR activity, and CFTRinh-172 (20 µM) to block CFTR current. For each agonist signals were monitored until a plateau in current was noted before adding the next agonist. The delta-Isc in response to CFTRinh-172 was used as our main read out for CFTR-mediated chloride transport.
We directly measured CFTR activity in cultures from CF patients treated with GSI with or without well-established effective in vitro doses of Trikafta (Elexcaftor/Tezacaftor/Ivacaftor or “ETI”). Veit, G., et al., JCI (2020) 10.1172/jci.insight.139983. Measurements were performed in Ussing chambers. […] In some individual experiments, there appeared to be a synergistic effect in the combination treatment: GSI alone has no effect but the combination treatment produced a greater response than ETI alone. This effect was not consistently seen, but raised the possibility that synergy might be observed with lower ETI doses.
To examine this further, we tested MK04752 in combination with varying doses of ETI (FIG. 28).

[3] = test system: Primary human airway epithelial cells; assay: MCC formation with a variety of GSIs at high and low concentrations; type: cell-based
[4] = test system: HNEC cultures from a CF patient; assay: IL-13 induced chronic inflammation model in ALI HNEC cultures; type: cell-based, human; conditions: DAPT 1 um, semagacestat 125 nm, days 14-21
Method: Administration of IL-13 to ALI cultures induces goblet cell hyperplasia and is a useful model of chronic inflammation. ALI HNEC cultures were prepared as described in Vladar et al. ALI cultures were treated with and without administration of Il-13 on days 7-14. DAPT (1 um), semagacestat (125 nm) or vehicle control were administered on days 14-21. PFA-fixed cultures were stained for Muc5AC (red; mucin producing secretory cells), Acetylated tubulin (green; MCCs) and E-Cadherin (blue to reveal cell boundaries).
HNEC cultures from a CF patient were treated with IL-13 from ALI+7 to 14 to induce inflammation. […] IL-13 treatment increases the percentage of mucin positive secretory cells and decreases the percentage of MCCs.

[5] = oral administration; cited from earlier work
[6] = test system: Mature (ALI+30d) primary human airway epithelial cells; assay: GSI treatment of mature (ALI+30d) cultures; type: cell-based; conditions: mature cultures treated one (ALI+30 to +37d) or two weeks (ALI+30 to +44d)
Method: Mature (ALI+30d) primary human airway epithelial cells were treated with DAPT and semagacestat for one (ALI+30 to +37d) or two weeks (ALI+30 to +44d), then labeled with anti-acetylated α-Tubulin (green) and ECAD (red) antibodies.

Structure (SMILES): CC(C)[C@H](O)C(=O)N[C@@H](C)C(=O)N[C@@H]1C(=O)N(C)CCc2ccccc21 [semagacestat, (2S)-2-hydroxy-3-methyl-N-[(1S)-1-methyl-2-oxo-2-[[(1S)-2,3,4,5-tetrahydro-3-methyl-2-oxo-1H-3-benzazepin-1-yl]amino]ethyl]-butamide]
- percentage of MCCs in the presence of Lumacaftor [1]: effective at increasing the percentage of MCCs
- ratio of ciliated to non-ciliated cells (airway epithelia; 0.1 mg/kg and 1 mg/kg IP twice daily for three days, sacrificed day 7, vs vehicle): increase; also recorded: a dose response trend was observed, with the high dose reaching statistical significance
- ratio of ciliated to non-ciliated cells (airway epithelia; 1 mg/kg IP once daily, 5 days per week for three weeks, day 31, vs vehicle): significant increase; also recorded: highly significant
- ciliated cell formation [2]: induces ciliated cell formation via both apical and basal application
- CFTR current induced by ETI (CFTR): Neither LY45139 (FIG. 26) nor MK04752 (FIG. 27) impaired the CFTR current
- epithelial structure ([3]; high concentrations, ALI+0 to +21d): disrupted epithelial structure
- multiciliated cell formation ([3]; low concentration, ALI+0 to +21d): induced multiciliated cell formation
- Notch signaling and differentiation towards MCCs ([3]; nanomolar range, human nasal epithelial cells): effective in blocking Notch signaling, driving differentiation towards MCCs
- percentage of MCCs ([4]; after IL-13 (ALI+7 to 14)): increasing the percentage of MCCs
- percentage of mucin positive secretory cells ([4]; after IL-13 (ALI+7 to 14)): decreasing the percentage of mucin positive secretory cells
- percentage of MCCs ([4]; controls without IL-13): increase the percentage off MCCs
- half-life [5]: approximately 2.5 hours
- formation of additional multiciliated cells [6]: induces the formation of additional multiciliated cells
